Patent USRE47221E1, “Tricyclic compounds” (AbbVie Inc., priority 2009, dated 2019)

Biological target: T1, Jak3 (Homo sapiens, UniProt P52333)
T1 construct: Jak3 enzyme (aa 811-1103); expressed in SF9 cells as a GST fusion; GST; made in house; host or cells: SF9 insect cells
Assay: Jak3 enzyme data for selected compounds
Format: biochemical

T1 sequence (P52333 811-1103): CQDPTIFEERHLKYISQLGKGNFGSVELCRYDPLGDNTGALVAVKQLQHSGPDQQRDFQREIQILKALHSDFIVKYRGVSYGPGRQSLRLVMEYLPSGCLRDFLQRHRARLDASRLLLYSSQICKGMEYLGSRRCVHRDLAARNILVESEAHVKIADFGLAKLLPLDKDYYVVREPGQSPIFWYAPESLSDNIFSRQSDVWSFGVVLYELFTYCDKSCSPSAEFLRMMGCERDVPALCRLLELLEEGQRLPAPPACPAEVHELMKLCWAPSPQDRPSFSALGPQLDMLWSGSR

An IC50 of 0.1 to 1 µM was found for `CC[C@H]1C[C@@H](NS(=O)(=O)C2CC2)C[C@]1(F)c1nnc2cnc3[nH]ccc3n12` (single isomer, unassigned) [AA.1.44, N-(cis-4-ethyl-3-fluoro-3-(6H-pyrrolo[2,3-e][1,2,4]triazolo[4,3-a]pyrazin-1-yl)cyclopentyl)cyclo-propanesulfonamide] in this work.

An IC50 of 0.1 to 1 µM was found for `CC[C@@H]1CCN(C(=O)CC#N)C[C@@H]1c1ncc2cnc3[nH]ccc3n12` (single isomer, unassigned) [AA.1.54, 3-(cis-4-ethyl-3-(6H-imidazo[1,5-a]pyrrolo[2,3-e]pyrazin-1-yl)piperidin-1-yl)-3-oxopropanenitrile] in this work.

An IC50 of 0.1 to 1 µM was found for `O=S(=O)(NC[C@H]1CC[C@H](c2ncc3cnc4[nH]ccc4n23)C1)C1CC1` (single isomer, unassigned) [AA.1.60] in this work.

An IC50 of 0.1 to 1 µM was found for `O=S(=O)(NC[C@H]1CC[C@@H](c2ncc3cnc4[nH]ccc4n23)C1)C1CC1` (single isomer, unassigned) [AA.1.61] in this work.

An IC50 of 0.1 to 1 µM was found for `O=S(=O)(CCC(F)(F)F)NC[C@H]1CC[C@@H](c2ncc3cnc4[nH]ccc4n23)C1` (single isomer, unassigned) [AA.1.62] in this work.

For `O=S(=O)(CCC(F)(F)F)NC[C@H]1CC[C@H](c2ncc3cnc4[nH]ccc4n23)C1` (single isomer, unassigned) [AA.1.63], the IC50 was > 1 µM.

For `CCC1CC(CNS(=O)(=O)C2CC2)CC1c1nnc2cnc3[nH]ccc3n12` (single isomer, unassigned) [AA.1.64, N-((3-ethyl-4-(6H-pyrrolo[2,3-e][1,2,4]triazolo[4,3-a]pyrazin-1-yl)cyclopentyl)methyl)cyclopropane sulfonamide], the IC50 was > 1 µM.

For `CC[C@@H]1C[C@H](OCC2CCOCC2)C[C@H]1c1nnc2cnc3[nH]ccc3n12` (single isomer, unassigned) [AA.1.66, 1-(2-ethyl-4-((tetrahydro-2H-pyran-4-yl)methoxy)cyclopentyl)-6H-pyrrolo[2,3-e][1,2,4]triazolo[4,3-a]pyrazine], the IC50 was > 1 µM.

`CC[C@@H]1C[C@H](OCC2CCOCC2)C[C@@H]1c1nnc2cnc3[nH]ccc3n12` (single isomer, unassigned) [AA.1.67, 1-(2-ethyl-4-((tetrahydro-2H-pyran-4-yl)methoxy)cyclopentyl)-6H-pyrrolo[2,3-e][1,2,4]triazolo[4,3-a]pyrazine] was tested, and the IC50 was > 1 µM.

In the case of `CC[C@H]1C[C@@H](NS(=O)(=O)CCC(F)(F)F)C[C@H]1c1cnc2cnc3[nH]ccc3n12` (single isomer, unassigned) [AA.1.76, N-(3-ethyl-4-(3H-imidazo[1,2-a]pyrrolo[2,3-e]pyrazin-8-yl)cyclopentyl)-3,3,3-trifluoropropane-1-sulfonamide], the IC50 is reported as > 1 µM.

`CC[C@@H]1C[C@H](NS(=O)(=O)CCC(F)(F)F)C[C@@H]1c1cnc2cnc3[nH]ccc3n12` (single isomer, unassigned) [AA.1.77, N-(3-ethyl-4-(3H-imidazo[1,2-a]pyrrolo[2,3-e]pyrazin-8-yl)cyclopentyl)-3,3,3-trifluoropropane-1-sulfonamide] was tested, and the IC50 was < 0.1 µM.

With `CC[C@@H]1C[C@H](NS(=O)(=O)N2CC(F)(F)C2)C[C@@H]1c1cnc2cnc3[nH]ccc3n12` (single isomer, unassigned) [AA.1.79, N-(3-ethyl-4-(3H-imidazo[1,2-a]pyrrolo[2,3-e]pyrazin-8-yl)cyclopentyl)-3,3-difluoroazetidine-1-sulfonamide] the IC50 was < 0.1 µM.

In the case of `CC[C@@H]1C[C@H](OCC2CC2)C[C@@H]1c1nnc2cnc3[nH]ccc3n12` (single isomer, unassigned) [AA.1.80, 1-(4-(cyclopropylmethoxy)-2-ethylcyclopentyl)-6H-pyrrolo[2,3-e][1,2,4]triazolo[4,3-a]pyrazine], the IC50 is reported as > 1 µM.

With `C[C@@H]1C[C@H](NS(=O)(=O)NCCO)C[C@@H]1c1cnc2cnc3[nH]ccc3n12` (single isomer, unassigned) [AA.1.81] the IC50 was < 0.1 µM.

An IC50 of 0.1 to 1 µM was found for `CC[C@@H]1C[C@@H](OCC2CC2)C[C@@H]1c1nnc2cnc3[nH]ccc3n12` (single isomer, unassigned) [AA.1.90, 1-(4-(cyclopropylmethoxy)-2-ethylcyclopentyl)-6H-pyrrolo[2,3-e][1,2,4]triazolo[4,3-a]pyrazine] in this work.

An IC50 of 0.1 to 1 µM was found for `CC[C@@H]1C[C@@H](OC2CCOCC2)C[C@@H]1c1nnc2cnc3[nH]ccc3n12` (single isomer, unassigned) [AA.1.91, 1-(2-ethyl-4-(tetrahydro-2H-pyran-4-yloxy)cyclopentyl)-6H-pyrrolo[2,3-e][1,2,4]triazolo[4,3-a]pyrazine] in this work.

For `CC[C@@H]1C[C@H](NS(=O)(=O)c2ccc(F)c(Cl)c2)C[C@@H]1c1cnc2cnc3[nH]ccc3n12` (single isomer, unassigned) [AA.1.92, 3-chloro-N-(3-ethyl-4-(3H-imidazo[1,2-a]pyrrolo[2,3-e]pyrazin-8-yl)cyclopentyl)-4-fluorobenzenesulfonamide], the IC50 was < 0.1 µM.

In the case of `C[C@H]1C[C@H](Oc2ccc(C#N)cc2)C[C@H]1c1nnc2cnc3[nH]ccc3n12` (single isomer, unassigned) [AA.1.93, 4-(3-methyl-4-(6H-pyrrolo[2,3-e][1,2,4]triazolo[4,3-a]pyrazin-1-yl)cyclopentyloxy)benzonitril], the IC50 is reported as > 1 µM.

An IC50 of 0.1 to 1 µM was found for `C[C@H]1C[C@H](Oc2ccc(C#N)cc2)C[C@@H]1c1nnc2cnc3[nH]ccc3n12` (single isomer, unassigned) [AA.1.94, 4-(3-methyl-4-(6H-pyrrolo[2,3-e][1,2,4]triazolo[4,3-a]pyrazin-1-yl)cyclopentyloxy)benzonitrile] in this work.

For `CC[C@@H]1C[C@@H](Oc2ccc(C(F)(F)F)cn2)C[C@@H]1c1nnc2cnc3[nH]ccc3n12` (single isomer, unassigned) [AA.1.95, 1-(2-ethyl-4-(5-(trifluoromethyl)pyridin-2-yloxy)cyclopentyl)-6H-pyrrolo[2,3-e][1,2,4]triazolo[4,3-a]pyrazine], the IC50 was > 1 µM.

For `CC[C@H]1C[C@H](Oc2ccc(C(F)(F)F)cn2)C[C@H]1c1nnc2cnc3[nH]ccc3n12` (single isomer, unassigned) [AA.1.96, 1-(2-ethyl-4-(5-(trifluoromethyl)pyridin-2-yloxy)cyclopentyl)-6H-pyrrolo[2,3-e][1,2,4]triazolo[4,3-a]pyrazine], the IC50 was > 1 µM.

In the case of `CC[C@H]1C[C@@H](Oc2cnc(C#N)cn2)C[C@@H]1c1nnc2cnc3[nH]ccc3n12` (single isomer, unassigned) [AA.1.97, 5-(3-ethyl-4-(6H-pyrrolo[2,3-e][1,2,4]triazolo[4,3-a]pyrazin-1-yl)cyclopentyloxy)pyrazine-2-carbonitrile], the IC50 is reported as > 1 µM.

For `CC[C@@H]1C[C@H](Oc2cnc(C#N)cn2)C[C@H]1c1nnc2cnc3[nH]ccc3n12` (single isomer, unassigned) [AA.1.98, 5-(3-ethyl-4-(6H-pyrrolo[2,3-e][1,2,4]triazolo[4,3-a]pyrazin-1-yl)cyclopentyloxy)pyrazine-2-carbonitrile], the IC50 was < 0.1 µM.

An IC50 of 0.1 to 1 µM was found for `CC[C@@H]1C[C@@H](OCc2cccc(C#N)c2)C[C@@H]1c1nnc2cnc3[nH]ccc3n12` (single isomer, unassigned) [AA.1.99, 3-((3-ethyl-4-(6H-pyrrolo[2,3-e][1,2,4]triazolo[4,3-a]pyrazin-1-yl)cyclopentyloxy)methyl)benzonitrile] in this work.

In the case of `CC[C@H]1C[C@H](OCc2cccc(C#N)c2)C[C@H]1c1nnc2cnc3[nH]ccc3n12` (single isomer, unassigned) [AA.1.100, 3-((3-ethyl-4-(6H-pyrrolo[2,3-e][1,2,4]triazolo[4,3-a]pyrazin-1-yl)cyclopentyloxy)methyl)benzonitrile], the IC50 is reported as > 1 µM.

`CC[C@@H]1C[C@@H](OCc2ccc(C#N)cc2)C[C@@H]1c1nnc2cnc3[nH]ccc3n12` (single isomer, unassigned) [AA.1.101, 4-((3-ethyl-4-(6H-pyrrolo[2,3-e][1,2,4]triazolo[4,3-a]pyrazin-1-yl)cyclopentyloxy)methyl)benzonitrile] was tested, and the IC50 was < 0.1 µM.

With `CC[C@H]1C[C@H](OCc2ccc(C#N)cc2)C[C@H]1c1nnc2cnc3[nH]ccc3n12` (single isomer, unassigned) [AA.1.102, 4-((3-ethyl-4-(6H-pyrrolo[2,3-e][1,2,4]triazolo[4,3-a]pyrazin-1-yl)cyclopentyloxy)methyl)benzonitrile] the IC50 was > 1 µM.

With `CC[C@@H]1C[C@@H](Oc2ccc(C#N)c(F)c2)C[C@@H]1c1nnc2cnc3[nH]ccc3n12` (single isomer, unassigned) [AA.1.103, 4-(3-ethyl-4-(6H-pyrrolo[2,3-e][1,2,4]triazolo[4,3-a]pyrazin-1-yl)cyclopentyloxy)-2-fluorobenzonitrile] the IC50 was < 0.1 µM.

In the case of `CC[C@@H]1C[C@@H](Oc2ccc(C#N)cc2F)C[C@@H]1c1nnc2cnc3[nH]ccc3n12` (single isomer, unassigned) [AA.1.104, 4-(3-ethyl-4-(6H-pyrrolo[2,3-e][1,2,4]triazolo[4,3-a]pyrazin-1-yl)cyclopentyloxy)-3-fluorobenzonitrile], the IC50 is reported as < 0.1 µM.

`CC[C@@H]1C[C@@H](O)C[C@@H]1c1nnc2cnc3[nH]ccc3n12` (single isomer, unassigned) [AA.1.106, 3-ethyl-4-(6H-pyrrolo[2,3-e][1,2,4]triazolo[4,3-a]pyrazin-1-yl)cyclopentanol] was tested, and the IC50 was > 1 µM.

In the case of `CC[C@@H]1C[C@H](NS(=O)(=O)C2CC2)C[C@@H]1n1cnc2cnc3[nH]ccc3c21` (single isomer, unassigned) [Example #23], the IC50 is reported as < 0.1 µM.

`C[C@@H]1C[C@H](NS(=O)(=O)C2CC2)C[C@@H]1c1cnc2cnc3[nH]ccc3n12` (single isomer, unassigned) [Example #24] was tested, and the IC50 was < 0.1 µM.

For `C[C@@H]1C[C@H](NS(=O)(=O)N2CC(F)(F)C2)C[C@@H]1c1cnc2cnc3[nH]ccc3n12` (single isomer, unassigned) [Example #25], the IC50 was < 0.1 µM.

An IC50 of 0.1 to 1 µM was found for `CC[C@H]1C[C@@H](OCc2ccc(OC)cc2)C[C@@H]1c1n[nH]c2cnc3[nH]ccc3c12` (single isomer, unassigned) [Example #30] in this work.

An IC50 of 0.1 to 1 µM was found for `CC[C@@H]1C[C@H](OCc2ccc(OC)cc2)C[C@H]1c1n[nH]c2cnc3[nH]ccc3c12` (single isomer, unassigned) [compound 31] in this work.
